Experimental data reported in paper PMC3241878 (ACS chemical biology, 2011).

Molecular target: Siderocalin (Scn; a.k.a. Lcn2, Ngal, 24p3) (Homo sapiens, UniProt P80188)
Assay: intrinsic fluorescence quenching titration
Format: binding
Settings: pH 7.4, TBS, 5% DMSO, 32 μg/mL ubiquitin, 100 nM protein; ferric complex

Siderocalin (Scn; a.k.a. Lcn2, Ngal, 24p3), sequence (P80188 21-198): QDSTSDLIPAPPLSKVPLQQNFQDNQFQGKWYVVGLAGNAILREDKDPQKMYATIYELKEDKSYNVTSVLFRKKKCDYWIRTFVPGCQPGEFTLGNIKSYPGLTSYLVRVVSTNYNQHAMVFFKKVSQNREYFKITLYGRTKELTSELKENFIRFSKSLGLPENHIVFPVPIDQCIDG

Row | Substance | Kd | Kd (μM)
1 | Fe^IIICMB (n = 3) | > 9 µM | –
2 | Fe^IIICMB (n = 4) | – | 2.36 ± 9.0×10^−3 μM
3 | Fe^IIICMB-5 [n = 5] | – | 1.10 ± 2.6×10^−2 μM
4 | Fe^IIICMB-6 [n = 6] | – | 0.654 ± 2.2×10^−2 μM
5 | Fe^IIICMB-7 [n = 7] | – | 0.128 ± 1.0×10^−3 μM
